Reference: patent publication US20240425491A1, “HETEROARYL COMPOUNDS USEFUL IN THE TREATMENT OF COGNITIVE DISORDERS” (University College Cardiff Consultants Limited, priority 2021, published 2024)
Counter-ions that a name gives are not always drawn.

Legend:
[1] = target: T1, human recombinant GABAAR containing α5β3γ2 subunits (benzodiazepine site) (Homo sapiens, UniProt P18507+P31644); test: In vitro radioligand binding assay (α5-GABAAR Ki); conditions: inhibition of [3H]Ro15-1788 binding, membranes of L(tk−) cells expressing human α5β3γ2; read-out: α5-GABAAR Ki
T1 construct: expressed in transfected cells; host or cells: mouse L(tk−) cells, dexamethasone-inducible vector pMSGneo
T1 sequence (P31644 32-462): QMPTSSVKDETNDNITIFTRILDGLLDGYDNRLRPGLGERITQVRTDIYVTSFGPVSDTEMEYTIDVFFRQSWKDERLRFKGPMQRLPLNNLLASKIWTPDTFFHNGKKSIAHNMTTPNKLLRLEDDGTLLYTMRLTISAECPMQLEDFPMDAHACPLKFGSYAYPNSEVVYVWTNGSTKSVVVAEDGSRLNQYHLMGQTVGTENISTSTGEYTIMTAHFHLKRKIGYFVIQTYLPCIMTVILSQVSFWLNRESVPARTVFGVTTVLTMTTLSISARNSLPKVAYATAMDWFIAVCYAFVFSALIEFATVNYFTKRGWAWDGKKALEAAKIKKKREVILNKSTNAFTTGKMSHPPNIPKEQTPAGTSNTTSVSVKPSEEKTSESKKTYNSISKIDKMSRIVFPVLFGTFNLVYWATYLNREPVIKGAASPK
T1 sequence (P28472 26-473 partner): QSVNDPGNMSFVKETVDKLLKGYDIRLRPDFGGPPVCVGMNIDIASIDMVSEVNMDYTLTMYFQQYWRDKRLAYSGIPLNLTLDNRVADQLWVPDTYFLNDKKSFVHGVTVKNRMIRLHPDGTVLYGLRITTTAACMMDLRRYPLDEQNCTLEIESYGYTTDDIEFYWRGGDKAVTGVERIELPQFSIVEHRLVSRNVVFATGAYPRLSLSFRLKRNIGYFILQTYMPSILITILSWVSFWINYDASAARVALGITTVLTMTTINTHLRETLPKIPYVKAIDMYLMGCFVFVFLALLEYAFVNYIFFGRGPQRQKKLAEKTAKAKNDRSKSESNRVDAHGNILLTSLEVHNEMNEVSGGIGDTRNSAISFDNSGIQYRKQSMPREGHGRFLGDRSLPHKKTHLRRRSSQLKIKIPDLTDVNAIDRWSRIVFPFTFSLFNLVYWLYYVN
T1 sequence (P18507 40-475): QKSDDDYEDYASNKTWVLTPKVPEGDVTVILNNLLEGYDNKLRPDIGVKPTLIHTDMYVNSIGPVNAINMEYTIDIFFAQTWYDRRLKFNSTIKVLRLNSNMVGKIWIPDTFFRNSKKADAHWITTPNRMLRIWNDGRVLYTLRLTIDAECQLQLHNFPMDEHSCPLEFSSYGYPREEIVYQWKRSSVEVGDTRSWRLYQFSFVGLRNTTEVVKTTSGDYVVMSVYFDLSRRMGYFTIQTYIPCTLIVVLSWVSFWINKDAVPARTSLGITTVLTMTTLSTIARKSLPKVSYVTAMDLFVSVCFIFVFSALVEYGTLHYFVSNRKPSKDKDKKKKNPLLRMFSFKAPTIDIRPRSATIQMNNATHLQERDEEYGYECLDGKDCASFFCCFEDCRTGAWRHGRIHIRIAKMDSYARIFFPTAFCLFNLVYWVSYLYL
Method in brief: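 Membranes from mouse L(tk^−) cells stably expressing human α5β3γ2 GABAAR incubated 1 h at 4° C with 4 nM [^3H]Ro15-1788 and test compound; nonspecific binding with 1 μM TP003. Filter-bound radioactivity counted; Ki from IC50 by Cheng-Prusoff using measured Kd.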

[2] = target: T2, human α5β3γ2 GABAARs in mouse L(tk−) cells (Homo sapiens, UniProt P18507+P31644); test: In vitro electrophysiological recording assay (α5-GABAAR relative efficacy), QPatch; assay type: cell-based; conditions: GABA EC10-20
T2 construct: expressed in transfected cells; host or cells: mouse L(tk−) cells, dexamethasone-inducible vector pMSGneo
T2 sequence (P31644 32-462): as the sequence (P31644 32-462) above
T2 sequence (P28472 26-473 partner): as the sequence (P28472 26-473 partner) above
T2 sequence (P18507 40-475): as the sequence (P18507 40-475) above
Method in brief: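 Whole-cell QPatch recordings at 20-22° C, −65 mV holding, in dexamethasone-induced (1 μM, 24 h) L(tk−) cells. Compound pre-applied ≥1 min, then co-applied with GABA EC10-20; percentage change in leak-corrected peak current, taken at ≥100× Ki, normalised to DMCM efficacy; 0.1% DMSO final.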

[3] = target: T3, human α5β3γ2L GABAA receptors in HEK293 cells (Homo sapiens, UniProt P18507+P31644); test: In vitro electrophysiological recording assay (α5-GABAAR relative efficacy), SyncroPatch; assay type: cell-based; conditions: Conc 0.1 μM; GABA EC10-20
T3 construct: expressed in transfected cells
T3 sequence (P31644 32-462): as the sequence (P31644 32-462) above
T3 sequence (P28472 26-473 partner): as the sequence (P28472 26-473 partner) above
T3 sequence (P18507 40-475): as the sequence (P18507 40-475) above
Description: Mouse L(tk^−) cells stably expressing human α1β3γ2, α2β3γ2, α3β3γ2, α5β3γ2 GABAARs generated by transfection of the individual subunits in the dexamethasone-inducible expression vector pMSGneo in mouse L(tk^−) cells (Hadingham et al., 1993, Mol. Pharmacol. 43:970-975 and 1993, Mol. Pharmacol. 44:1211-1218) were used for binding and functional assays. For certain compounds, HEK293 cells stable expressing the human α1β3γ2L, α2β3γ2L, α3β3γ2L and α5β3γ2L GABAA receptors were used to evaluate their functional effects in a SyncroPatch electrophysiology assay.
The efficacy of modulators was evaluated using either the automated patch-clamp platform QPatch16 (Sophion, Copenhagen, Denmark) or the SyncroPatch 384i (Nanion Technologies, Germany). Cells were harvested from flasks by enzymatic dissociation and re-suspended in serum-free medium.
For the Syncropatch recordings, a stacked addition protocol was used, in which GABA was rapidly applied and then washed off from the cell. All experiments were carried out at room temperature (20-22° C.) using a standard whole cell procedure. The currents recorded were acquired at 2 kHz and filtered using a Bessel filter. Whole-cell currents were measured at a holding potential of −80 mV.
For Syncropatch recordings, the extracellular recording solution contained: 140 mM NaCl, 4 mM KCl, 2 mM CaCl2), 1 mM MgCl2, 10 mM HEPES, 5 mM glucose (pH 7.4 and osmolarity of c. 300-310 mOsm/L). The intracellular recording solution contained: 90 mM KCl, 50 mM KF, 1.5 mM MgCl2, 11.1 mM EGTA and 10 mM HEPES (pH 7.2 and osmolarity of c. 300 mOsm/L). 2 mM of NaATP was added to the intracellular solution on the day of testing.
The effects of modulators were evaluated in the presence of a submaximal GABA concentration, giving typically 10-20% activation (GABA EC10-20) of the response elicited by a saturating GABA concentration. For QPatch recordings, to check and ensure baseline current stability before compound addition, five consecutive applications of GABA EC10-20 alone (each application with a 2 s duration, separated by minimum 1 min wash off periods) were performed before compound addition. The test compound was applied using the pipetting system of the QPatch system 1 min at least prior to co-application with GABA EC10-20. For SyncroPatch recordings, GABA EC20 alone was applied three times (1 s long applications, with wash steps in-between) before compound addition. This was followed by a 1-2 min pre-incubation with the test compound and then re-application of GABA EC10-20 in the presence of the compound. Finally, following a further wash step, a saturating concentration of GABA was applied, allowing the accurate evaluation for each cell of the percentage baseline activation elicited by the submaximal GABA applied.
The compounds were first dissolved in DMSO as a 10 mM stock and then further diluted to the testing concentrations so that the final DMSO concentration in the extracellular recording solution was kept constant at 0.1% for the QPatch recordings, or 0.2% for the SyncroPatch recordings.
The % efficacy of modulators was determined from the GABA elicited currents recorded in the presence and absence of the test compound, using the formula:
[((compound peak current−leak)−(GABA peak current−leak))/(GABA peak current−leak)]*100,
where ‘leak’ is the leak baseline current at −65 mV, ‘compound peak current’ is the current elicited by co-application of compound and GABA, and ‘GABA peak current’ is the current elicited by GABA alone during the 5th GABA application. The results were presented as ‘relative efficacy’ for each compound generally at a concentration equal or higher than 100 times their determined Ki. The relative efficacy of a compound was calculated by normalising its efficacy to the efficacy of methyl-6,7-dimethoxy-4-ethyl-beta-carboline-3-carboxylate (DMCM) that was separately determined produced an attenuation of GABA-induced currents of −57±4%, n=5.

Compound | Ki [1] | α5-GABAAR Relative Efficacy (to DMCM), Qpatch ([2]; Conc 1 μM) | α5-GABAAR Relative Efficacy (to DMCM), SyncroPatch [3] | α5-GABAAR Relative Efficacy (to DMCM), Qpatch ([2]; Conc 3 μM) | α5-GABAAR Relative Efficacy (to DMCM), Qpatch ([2]; Conc 0.1 μM) | α5-GABAAR Relative Efficacy (to DMCM), Qpatch ([2]; Conc 0.3 μM)
COc1nc(-c2cnc(N)cn2)ccc1NC(=O)c1c(-c2ccccc2)noc1C.Cl [Example 55, N-[6-(5-Aminopyrazin-2-yl)-2-methoxy-3-pyridyl]-5-methyl-3-phenyl-isoxazole-4-carboxamide hydrochloride] | 3.4 nM | −0.92 | −0.93 |  |  | 
COc1nc(-c2cnn3ncccc23)ccc1NC(=O)c1c(-c2ccccc2)noc1C [Example 83, N-(2-Methoxy-6-(pyrazolo[1,5-b]pyridazin-3-yl)pyridin-3-yl)-5-methyl-3-phenylisoxazole-4-carboxamide] | 13 nM |  | −0.50 | −0.71 |  | 
Cc1onc(-c2ccc(F)cc2)c1C(=O)Nc1ccc(-c2cnc3n2CCNC3)nc1OC(C)C.Cl [Example 208, 3-(4-Fluorophenyl)-N-(2-isopropoxy-6-(5,6,7,8-tetrahydroimidazo[1,2-a]pyrazin-3-yl)pyridin-3-yl)-5-methylisoxazole-4-carboxamide hydrochloride] | 0.7 nM |  | −0.70 |  | −0.38 | 
COc1nc(-c2cnc(CN)nc2)cnc1NC(=O)c1c(-c2ccccc2)noc1C.Cl [Example 156, N-[5-[2-(Aminomethyl)pyrimidin-5-yl]-3-methoxy-pyrazin-2-yl]-5-methyl-3-phenyl-isoxazole-4-carboxamide hydrochloride] | 2.7 nM |  | −0.65 |  |  | −0.91

Now from value to compound, other results behind:

Ki [1] | α5-GABAAR Relative Efficacy (to DMCM), Qpatch ([2]; Conc 1 μM) | α5-GABAAR Relative Efficacy (to DMCM), SyncroPatch [3] | α5-GABAAR Relative Efficacy (to DMCM), Qpatch ([2]; Conc 3 μM) | α5-GABAAR Relative Efficacy (to DMCM), Qpatch ([2]; Conc 0.1 μM) | Compound | α5-GABAAR Relative Efficacy (to DMCM), Qpatch ([2]; Conc 0.3 μM)
5 nM | −0.71 | −0.44 |  |  | COc1nc(-c2cncc(OC(F)F)c2)ccc1NC(=O)c1c(-c2ccccc2)noc1C [Example 87, N-(5′-(Difluoromethoxy)-6-methoxy-[2,3′-bipyridin]-5-yl)-5-methyl-3-phenylisoxazole-4-carboxamide] | 
0.3 nM |  | −0.83 |  | −0.56 | Cc1onc(-c2ccccc2)c1C(=O)Nc1ccc(-c2cnc(CN)nc2)nc1OC(C)C [Example 207, N-(6-(2-(Aminomethyl)pyrimidin-5-yl)-2-isopropoxypyridin-3-yl)-5-methyl-3-phenylisoxazole-4-carboxamide hydrochloride] | 
1.9 nM |  | −1.13 |  |  | COc1nc(-n2ccnc2)ccc1NC(=O)c1c(-c2ccc(F)cc2)noc1C [Example 141, 3-(4-Fluorophenyl)-N-(6-imidazol-1-yl-2-methoxy-3-pyridyl)-5-methyl-isoxazole-4-carboxamide] | −0.93
3.8 nM | −0.80 | −0.69 |  |  | COc1nc(-c2cnc3n2CCN(C)C3)ccc1NC(=O)c1c(-c2ccccc2)noc1C [Example 137, N-(2-Methoxy-6-(7-methyl-5,6,7,8-tetrahydroimidazol[1,2-a]pyrazin-3-yl)pyridin-3-yl)-5-methyl-3-phenylisoxazole-4-carboxamide] | 
0.7 nM |  | −0.72 |  | −0.70 | COc1nc(-c2cnc(OC3CNC3)nc2)ccc1NC(=O)c1c(-c2ccccc2)noc1C [Example 189, N-[6-[2-(Azetidin-3-yloxy)pyrimidin-5-yl]-2-methoxy-3-pyridyl]-5-methyl-3-phenyl-isoxazole-4-carboxamide] | 
0.5 nM |  | −0.90 |  | −0.76 | COc1nc(-c2cnc(N)nc2)ccc1NC(=O)c1c(-c2ccccc2)noc1C [Example 43, N-[6-(2-Aminopyrimidin-5-yl)-2-methoxy-3-pyridyl]-5-methyl-3-phenyl-isoxazole-4-carboxamide] | 
